Measured values reported in patent US12558353B2 (CELLTAXIS, LLC, priority 2018, dated 2026).

Legend:
[1] = test system: adult patients with cystic fibrosis; assay: EMPIRE-CF Phase II randomized placebo-controlled trial: pulmonary exacerbations; format: in vivo, human; conditions: for adjusted mean (95% CI) annualized pulmonary exacerbation rate: all lung disease phenotypes; for adjusted mean (95% CI) annualized pulmonary exacerbation rate / proportion of patients who did not experience a pulmonary exacerbation during the study period: 48 weeks; for patients who did not have a pulmonary exacerbation during the study: baseline FEV1pp>75% (mild disease)
Description: EMPIRE-CF was a Phase II multicenter, randomized, double-blind, placebo-controlled, parallel-group study to evaluate the efficacy and safety of acebilustat in adult patients with CF (NCT02443688). The study consisted of a 48-week treatment period and follow-up visit 4 weeks after treatment completion. Screening visits occurred up to 21 days prior to the first study drug dose (FIG. 2).
Patients were enrolled from 69 centers in the USA, Canada, and Europe. All centers were experienced in CF care and the conduct of clinical trials. In brief, adult women and men 18-30 years old with a documented diagnosis of CF, an FEV1pp≥50% at screening and at least one pulmonary exacerbation in the previous year were enrolled. Baseline demographics are presented in the section below.
Patients were randomized 1:1:1 to receive either once-daily oral acebilustat 50 mg or 100 mg (Celtaxsys, Atlanta, GA, USA), or placebo supplied as capsules. The two acebilustat doses were selected based on the levels of reduction of serum LTB4 production seen in Phase I studies.
Pulmonary exacerbations were defined as the requirement for oral, inhaled or intravenous antibiotics for four or more signs or symptoms according to the modified Fuch's criteria (change in sputum; new or increased hemoptysis; increased cough; increased dyspnea; malaise, fatigue or lethargy; temperature >38° C.; anorexia or weight loss; sinus pain or tenderness; change in sinus discharge; change in physical examination of the chest; ≥10% absolute decrease in FEV1pp from the previously recorded value; radiographic changes indicative of pulmonary infection) [Fuchs et al., 1994], referred collectively (antibiotics plus the four or more signs and symptoms) as expanded Fuchs criteria. The date the pulmonary exacerbation began was defined as the first day of antibiotic use.
(§1) Pulmonary exacerbations were analyzed both as the time to first pulmonary exacerbation and the rate of pulmonary exacerbations. The time to first protocol defined-pulmonary exacerbation were analyzed using a Cox proportional hazards model. The number of protocol-defined pulmonary exacerbations reported through the Week 48/Early Termination visit were annualized (where a year was defined as 52 weeks) analyzed using a negative binomial regression. The two active doses were compared to placebo individually as well as pooled together using a contrast statement similar to that used for the primary analysis. Point estimates, standard errors, and 95% CIs for the mean of number of pulmonary exacerbations were presented. The difference in means between each CTX-4430 group from placebo were presented along with standard errors and 95% CIs. Spirometry-based endpoints were analyzed using the same methods as the primary endpoint. Analyses of sputum DNA and elastase and serum high-sensitivity C-reactive protein were based upon descriptive statistics by treatment group.
The annual rate of pulmonary exacerbations was calculated by standard methods for each treatment group.

[2] = test system: adult patients with cystic fibrosis; assay: EMPIRE-CF: safety and tolerability; format: in vivo, human; conditions: 48 weeks
Description: Treatment-emergent adverse events (TEAEs), including serious adverse events, were collected at each visit, and summarized by MEDRA system organ class and preferred term, severity, and relatedness to the study drug. An independent data monitoring committee monitored the safety and study conduct at approximately 8-week intervals.

[3] = test system: sputum neutrophil elastase, sputum neutrophil DNA, serum high-sensitivity C-reactive protein; assay: EMPIRE-CF: biomarkers (sputum DNA and elastase, serum hs-CRP); format: in vivo, human; conditions: compared with reductions seen in phase 1 trial
Procedure: as §1

[4] = in vivo; cited from earlier work
[5] = Phase I studies; cited from earlier work
[6] = 100 mg dose, baseline FEV1pp>75%, FAP
[7] = FEV1pp greater than 75 and concomitant CFTR modulator therapy
[8] = FEV1pp>75 at baseline, 100 mg dose
[9] = acebilustat-treated patients overall, analysis population not given
[10] = baseline FEV1pp>75%, FAP, 50 mg
[11] = baseline FEV1pp>75%, FAP, 100 mg
[12] = concomitant CFTR modulator therapy, 100 mg dose

Question: What does the source list for `O=C(O)c1ccc(CN2C[C@@H]3C[C@H]2CN3Cc2ccc(Oc3ccc(-c4ncco4)cc3)cc2)cc1` [acebilustat, 4-{[(1S,4S)-5-({4-[4-oxazol-2-yl-phenoxy]phenyl}methyl)-2,5-diazabicyclo[2.2.1]heptan-2-yl]methyl}benzoic acid]?
Answer: rate of pulmonary exacerbations requiring hospitalization as compared to placebo [1, 6]: lower rate; rate of pulmonary exacerbations requiring intravenous antibiotics as compared to placebo [1, 6]: lower the rate; Annualized Rate of Pulmonary Exacerbation (Adjusted Mean) ([1]; Baseline ppFEV1 >60, 50 mg): 1.44; Annualized Rate of Pulmonary Exacerbation, % difference from Placebo ([1]; Baseline ppFEV1 >60, 50 mg): −2%; Annualized Rate of Pulmonary Exacerbation (Adjusted Mean) ([1]; Baseline ppFEV1 >60, 100 mg): 1.27; Annualized Rate of Pulmonary Exacerbation, % difference from Placebo ([1]; Baseline ppFEV1 >60, 100 mg): −14%; Annualized Rate of Pulmonary Exacerbation (Adjusted Mean) ([1]; Baseline ppFEV1 >65, 50 mg): 1.25; Annualized Rate of Pulmonary Exacerbation, % difference from Placebo ([1]; Baseline ppFEV1 >65, 50 mg): −14%; Annualized Rate of Pulmonary Exacerbation (Adjusted Mean) ([1]; Baseline ppFEV1 >65, 100 mg): 1.05; Annualized Rate of Pulmonary Exacerbation, % difference from Placebo ([1]; Baseline ppFEV1 >65, 100 mg): −28%; Annualized Rate of Pulmonary Exacerbation (Adjusted Mean) ([1]; Baseline ppFEV1 >68, 50 mg): 1.12; Annualized Rate of Pulmonary Exacerbation, % difference from Placebo ([1]; Baseline ppFEV1 >68, 50 mg): −7%; Annualized Rate of Pulmonary Exacerbation (Adjusted Mean) ([1]; Baseline ppFEV1 >68, 100 mg): 0.81; Annualized Rate of Pulmonary Exacerbation, % difference from Placebo ([1]; Baseline ppFEV1 >68, 100 mg): −33%; Annualized Rate of Pulmonary Exacerbation (Adjusted Mean) ([1]; Baseline ppFEV1 >70, 50 mg): 1.2; Annualized Rate of Pulmonary Exacerbation, % difference from Placebo ([1]; Baseline ppFEV1 >70, 50 mg): −22%; Annualized Rate of Pulmonary Exacerbation (Adjusted Mean) ([1]; Baseline ppFEV1 >70, 100 mg): 0.92; Annualized Rate of Pulmonary Exacerbation, % difference from Placebo ([1]; Baseline ppFEV1 >70, 100 mg): −40%; Annualized Rate of Pulmonary Exacerbation (Adjusted Mean) ([1]; Baseline ppFEV1 >75, 50 mg): 1.28; Annualized Rate of Pulmonary Exacerbation, % difference from Placebo ([1]; Baseline ppFEV1 >75, 50 mg): −20%; Annualized Rate of Pulmonary Exacerbation (Adjusted Mean) ([1]; Baseline ppFEV1 >75, 100 mg): 0.84; Annualized Rate of Pulmonary Exacerbation, % difference from Placebo ([1]; Baseline ppFEV1 >75, 100 mg): −48%; time at which divergence in pulmonary exacerbation from placebo occurred ([1]; FAP and PP analysis): approximately 4 months; adjusted mean (95% CI) annualized pulmonary exacerbation rate ([1]; FAP, 50 mg once daily oral): 1.46 (1.13, 1.89); adjusted mean (95% CI) annualized pulmonary exacerbation rate ([1]; FAP, 100 mg once daily oral): 1.57 (1.22, 2.02); adjusted mean (95% CI) annualized pulmonary exacerbation rate ([1]; FAP, combined acebilustat groups): 1.51 (1.26, 1.81); time to first pulmonary exacerbation, hazard ratio versus placebo (95% CI) ([1]; FAP, 50 mg): 0.86 (0.563, 1.308); proportion of patients who did not experience a pulmonary exacerbation during the study period ([1]; FAP, 50 mg): 39%; time to first pulmonary exacerbation, hazard ratio versus placebo (95% CI) ([1]; FAP, 100 mg): 0.88 (0.576, 1.339); proportion of patients who did not experience a pulmonary exacerbation during the study period ([1]; FAP, 100 mg): 38%; time to first pulmonary exacerbation, hazard ratio versus placebo (95% CI) ([1]; FAP, acebilustat combined group): 0.87 (0.605, 1.246); proportion of patients who did not experience a pulmonary exacerbation during the study period ([1]; FAP, combined acebilustat dose group): 38%; response to acebilustat treatment (rate of exacerbations, hazard ratio) ([1]; FEV1 at or below 75% (≤75%)): did not exhibit the same level of response; decrease in the rate of pulmonary exacerbations versus placebo [1, 7]: 54%; higher proportion of patients exacerbation free at 48 weeks versus placebo [1, 7]: 165%; decrease in the rate of pulmonary exacerbations versus placebo ([1]; FEV1pp greater than 75 and concomitant CFTR modulator therapy, 100 mg dose): 65%; higher proportion of patients exacerbation free after 48 weeks of treatment versus placebo [1, 8]: 100%; reduction in PEx rate versus placebo [1, 8]: 48%; reduction in risk of experiencing first exacerbation versus placebo [1, 8]: 48%; more patients with no PEx during the study compared with placebo [1, 9]: 32%; reduced risk in progressing to first PEx versus placebo [1, 9]: 22%; reduction in PEx versus placebo [1, 9]: 18%; response to acebilustat treatment (rate of pulmonary exacerbations) ([1]; baseline FEV1pp at or below the median (≤68%)): did not exhibit the same level of response; annual rate of pulmonary exacerbations versus placebo ([1]; baseline FEV1pp higher than the median (>68%)): lower annual rate of pulmonary exacerbations versus placebo; patients who did not have a pulmonary exacerbation during the study ([1]; 50 mg): 48%; patients who did not have a pulmonary exacerbation during the study ([1]; 100 mg): 50%; patients who did not have a pulmonary exacerbation during the study ([1]; combined acebilustat group): 49%; adjusted mean (95% CI) annualized rate of pulmonary exacerbations [1, 10]: 1.28 (0.84, 1.96); time to first pulmonary exacerbation, hazard ratio (95% CI) versus placebo [1, 10]: 0.62 (0.304, 1.274); adjusted mean (95% CI) annualized rate of pulmonary exacerbations [1, 11]: 0.84 (0.49, 1.44); time to first pulmonary exacerbation, hazard ratio (95% CI) versus placebo [1, 11]: 0.52 (0.245, 1.101); time to first pulmonary exacerbation, hazard ratio (95% CI) versus placebo ([1]; baseline FEV1pp>75%, FAP, acebilustat combined group): 0.57 (0.307, 1.051); adjusted mean (95% CI) annualized rate of pulmonary exacerbations ([1]; baseline FEV1pp>75%, FAP, combined acebilustat groups): 1.04 (0.74, 1.46); reduction in rate of PEx versus CFTR modulators and placebo ([1]; concomitant CFTR modulator therapy, regardless of disease severity, 100 mg dose): 14%; higher proportion of patients with no exacerbations versus CFTR modulators and placebo [1, 12]: 51%; increased time to first exacerbation versus CFTR modulators and placebo [1, 12]: 27%; higher percentage of patients that were exacerbation free ([1]; patients off CFTR modulator therapy): about 15%; severity of the majority of adverse events [2]: mild or moderate; tolerability and risk of infection [2]: safe and well tolerated; tolerability and risk of infection ([2]; listed as Acebilustat): well tolerated with no increased risk of infection; sputum neutrophil elastase, sputum neutrophil DNA and serum hs-CRP versus placebo [3]: did not observe similar changes; AUC0-24 at steady state, fed vs fasting [4]: no differences; Cmax or AUC0-24, healthy volunteers versus patients with CF [4]: No significant differences; drug-related serious adverse events [5]: no drug-related serious AEs; tolerability [5]: well tolerated
